These results are taken from patent publication US11840686B2, “Modulation of prekallikrein (PKK) expression” (Ionis Pharmaceuticals, Inc., priority 2013, dated 2023).

Strand notation (5' to 3'): a small letter for the sugar, then the base; units joined by * are phosphorothioate-linked, units joined directly phosphodiester-linked; [ ] holds rarer units or linkages, { } end groups; capitals alone tell only the bases. e = 2'-O-(2-methoxyethyl) (MOE); k = constrained ethyl (cEt); [5mC] = 5-methylcytosine; d = 2'-deoxy (DNA)

The first series has as its system human PKK mRNA. The experiment in a line: Antisense inhibition of human PKK mRNA in HepaRG cells, 1,000 nM, MOE/deoxy/cEt oligonucleotides (Example 3). In kind it is cell-based. To be noted: HepaRG cells, electroporation with 1,000 nM antisense oligonucleotide, approx. 24 hours, PKK mRNA by RT-PCR (RTS3454), relative to untreated control cells; Table 25 experiment. The essentials:
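HepaRG cells at 20,000 per well electroporated with 1,000 nM 16-mer MOE/cEt/deoxy gapmers (phosphorothioate, 5-methylcytosine). After about 24 h, PKK mRNA measured by qRT-PCR with primer probe set RTS3454, normalized to RIBOGREEN total RNA. Reported as percent inhibition versus untreated cells.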
In general, % inhibition refers to the percentage by which the read-out fell short of the control. Turning to “548151 (eG*eG*kG*d[5mC]*dT*dT*d[5mC]*dA*dG*d[5mC]*d[5mC]*dA*dG*kA*k[5mC]*eA; antisense) [compound 548151]”, the “% inhibition” value is 35%.

With “548152 (e[5mC]*eG*kG*dG*d[5mC]*dT*dT*d[5mC]*dA*dG*d[5mC]*d[5mC]*dA*kG*kA*e[5mC]; antisense) [compound 548152]”, the “% inhibition” value is given as 32%.

With “548153 (eT*eG*k[5mC]*dT*dG*dA*dA*dA*dG*d[5mC]*dG*dG*dG*k[5mC]*kT*eT; antisense) [compound 548153]”, the “% inhibition” value was 44%.

Consider “548154 (eG*eT*kG*d[5mC]*dT*dG*dA*dA*dA*dG*d[5mC]*dG*dG*kG*k[5mC]*eT; antisense) [compound 548154]”, for which the “% inhibition” value was 7%.

“548156 (eT*e[5mC]*kA*dG*d[5mC]*d[5mC]*d[5mC]*d[5mC]*dT*dG*dG*dT*dT*kA*k[5mC]*eG; antisense) [compound 548156]”: the “% inhibition” value came out at 0%.

Turning to “548157 (eA*eT*kT*dG*dT*d[5mC]*dA*dG*d[5mC]*d[5mC]*d[5mC]*d[5mC]*dT*kG*kG*eT; antisense) [compound 548157]”, the “% inhibition” value stood at 7%.

In the case of “548158 (eG*e[5mC]*kA*dT*dT*dG*dT*d[5mC]*dA*dG*d[5mC]*d[5mC]*d[5mC]*k[5mC]*kT*eG; antisense) [compound 548158]”, the “% inhibition” value amounted to 18%.

Consider “548159 (e[5mC]*eG*k[5mC]*dA*dT*dT*dG*dT*d[5mC]*dA*dG*d[5mC]*d[5mC]*k[5mC]*k[5mC]*eT; antisense) [compound 548159]”, for which the “% inhibition” value is recorded as 59%.

Take “548160 (eT*e[5mC]*kG*d[5mC]*dA*dT*dT*dG*dT*d[5mC]*dA*dG*d[5mC]*k[5mC]*k[5mC]*e[5mC]; antisense) [compound 548160]”: the “% inhibition” value was 60%.

Still in this series, the particulars now being: Table 19; HepaRG cells, electroporation with 1,000 nM antisense oligonucleotide, approximately 24 hours; PKK mRNA by RT-PCR (RTS3454), relative to untreated control cells.
For “548105 (antisense e[5mC]*eA*kT*dG*dT*dA*d[5mC]*dT*d[5mC]*dA*dG*d[5mC]*dG*kA*k[5mC]*eT) [compound 548105]”, the “% inhibition” value stood at 49%.

For the substance “548107 (antisense eT*e[5mC]*k[5mC]*dA*dT*dG*dT*dA*d[5mC]*dT*d[5mC]*dA*dG*k[5mC]*kG*eA) [compound 548107]”, the “% inhibition” value amounted to 76%.

With “548108 (antisense eG*eA*kG*d[5mC]*dT*dT*dT*dT*d[5mC]*d[5mC]*dA*dT*d[5mC]*kA*k[5mC]*eT) [compound 548108]”, the “% inhibition” value stood at 61%.

As for “548110 (antisense eT*eG*k[5mC]*dA*dT*d[5mC]*dT*dG*dA*dG*d[5mC]*dT*dT*kT*kT*e[5mC]) [compound 548110]”, the “% inhibition” value came to 62%.

On to “548111 (antisense eG*eA*k[5mC]*dT*dG*d[5mC]*dA*dT*d[5mC]*dT*dG*dA*dG*k[5mC]*kT*eT) [compound 548111]”, for which the “% inhibition” value was determined as 53%.

In the case of “548112 (antisense eG*eT*kG*dA*d[5mC]*dT*dG*d[5mC]*dA*dT*d[5mC]*dT*dG*kA*kG*e[5mC]) [compound 548112]”, the “% inhibition” value stood at 23%.

“548113 (antisense eG*eG*kT*dG*dA*d[5mC]*dT*dG*d[5mC]*dA*dT*d[5mC]*dT*kG*kA*eG) [compound 548113]”: the “% inhibition” value was 56%.

For the substance “548114 (antisense eT*eG*kG*dT*dG*dA*d[5mC]*dT*dG*d[5mC]*dA*dT*d[5mC]*kT*kG*eA) [compound 548114]”, the “% inhibition” value came out at 70%.

In the case of “548115 (antisense e[5mC]*eA*kT*dG*d[5mC]*dT*dG*dG*dT*dG*dA*d[5mC]*dT*kG*k[5mC]*eA) [compound 548115]”, the “% inhibition” value came to 76%.

As for “548116 (antisense eT*e[5mC]*kA*dT*dG*d[5mC]*dT*dG*dG*dT*dG*dA*d[5mC]*kT*kG*e[5mC]) [compound 548116]”, the “% inhibition” value is 3%.

With “548117 (antisense e[5mC]*eT*k[5mC]*dA*dT*dG*d[5mC]*dT*dG*dG*dT*dG*dA*k[5mC]*kT*eG) [compound 548117]”, the “% inhibition” value is recorded as 73%.

As for “548118 (antisense eT*e[5mC]*kT*d[5mC]*dA*dT*dG*d[5mC]*dT*dG*dG*dT*dG*kA*k[5mC]*eT) [compound 548118]”, the “% inhibition” value is 47%.

With “548119 (antisense eT*eG*kG*dA*d[5mC]*dT*dG*d[5mC]*dT*dT*d[5mC]*dT*d[5mC]*kA*kT*eG) [compound 548119]”, the “% inhibition” value was found to be 25%.

With “548121 (antisense eT*e[5mC]*kT*dG*dG*dA*d[5mC]*dT*dG*d[5mC]*dT*dT*d[5mC]*kT*k[5mC]*eA) [compound 548121]”, the “% inhibition” value came out at 64%.

Consider “548122 (antisense e[5mC]*eT*k[5mC]*dT*dG*dG*dA*d[5mC]*dT*dG*d[5mC]*dT*dT*k[5mC]*kT*e[5mC]) [compound 548122]”, for which the “% inhibition” value was 55%.

Regarding “548123 (antisense eA*eG*kA*d[5mC]*dT*d[5mC]*dT*dG*dG*dA*d[5mC]*dT*dG*k[5mC]*kT*eT) [compound 548123]”, the “% inhibition” value amounted to 49%.

Turning to “548124 (antisense eT*eA*kG*dA*d[5mC]*dT*d[5mC]*dT*dG*dG*dA*d[5mC]*dT*kG*k[5mC]*eT) [compound 548124]”, the “% inhibition” value was determined as 51%.

In the case of “548126 (eT*eG*k[5mC]*d[5mC]*dT*dA*dG*dA*d[5mC]*dT*d[5mC]*dT*dG*kG*kA*e[5mC]; antisense) [compound 548126]”, the “% inhibition” value was found to be 19%.

For “548127 (eT*eT*kG*d[5mC]*d[5mC]*dT*dA*dG*dA*d[5mC]*dT*d[5mC]*dT*kG*kG*eA; antisense) [compound 548127]”, the “% inhibition” value was 60%.

Turning to “548129 (eT*eT*kT*dG*dA*d[5mC]*dT*dT*dG*dA*dA*d[5mC]*dT*k[5mC]*kA*eG; antisense) [compound 548129]”, the “% inhibition” value is on record as 35%.

Consider “548130 (eA*eT*kT*dT*dG*dA*d[5mC]*dT*dT*dG*dA*dA*d[5mC]*kT*k[5mC]*eA; antisense) [compound 548130]”, for which the “% inhibition” value came to 27%.

For “548131 (eA*eA*kT*dT*dT*dG*dA*d[5mC]*dT*dT*dG*dA*dA*k[5mC]*kT*e[5mC]; antisense) [compound 548131]”, the “% inhibition” value is 45%.

As for “548132 (eG*eA*kA*dT*dT*dT*dG*dA*d[5mC]*dT*dT*dG*dA*kA*k[5mC]*eT; antisense) [compound 548132]”, the “% inhibition” value was determined as 0%.

Consider “548133 (eA*eG*kA*dA*dT*dT*dT*dG*dA*d[5mC]*dT*dT*dG*kA*kA*e[5mC]; antisense) [compound 548133]”, for which the “% inhibition” value is on record as 23%.

Regarding “548134 (e[5mC]*eA*kG*dA*dA*dT*dT*dT*dG*dA*d[5mC]*dT*dT*kG*kA*eA; antisense) [compound 548134]”, the “% inhibition” value turned out to be 17%.

“548135 (eT*e[5mC]*kA*dG*dA*dA*dT*dT*dT*dG*dA*d[5mC]*dT*kT*kG*eA; antisense) [compound 548135]”: the “% inhibition” value is recorded as 46%.

In the case of “548136 (eG*eG*k[5mC]*dT*d[5mC]*dA*dG*dA*dA*dT*dT*dT*dG*kA*k[5mC]*eT; antisense) [compound 548136]”, the “% inhibition” value came to 39%.

For the substance “548137 (eA*eG*kG*d[5mC]*dT*d[5mC]*dA*dG*dA*dA*dT*dT*dT*kG*kA*e[5mC]; antisense) [compound 548137]”, the “% inhibition” value is 62%.

In the case of “548138 (e[5mC]*e[5mC]*k[5mC]*d[5mC]*dA*dG*dG*d[5mC]*dT*d[5mC]*dA*dG*dA*kA*kT*eT; antisense) [compound 548138]”, the “% inhibition” value was 52%.

In the case of “548139 (eA*eG*kA*dT*dG*dA*dG*dG*dA*d[5mC]*d[5mC]*d[5mC]*d[5mC]*k[5mC]*k[5mC]*eA; antisense) [compound 548139]”, the “% inhibition” value is listed as 56%.

“548140 (e[5mC]*eA*kG*dA*dT*dG*dA*dG*dG*dA*d[5mC]*d[5mC]*d[5mC]*k[5mC]*k[5mC]*e[5mC]; antisense) [compound 548140]”: the “% inhibition” value turned out to be 74%.

In the case of “548141 (eG*e[5mC]*kA*dG*dA*dT*dG*dA*dG*dG*dA*d[5mC]*d[5mC]*k[5mC]*k[5mC]*e[5mC]; antisense) [compound 548141]”, the “% inhibition” value was determined as 66%.

Regarding “548142 (eA*e[5mC]*kT*d[5mC]*dT*d[5mC]*d[5mC]*dA*dT*dG*d[5mC]*dT*dT*kT*kG*e[5mC]; antisense) [compound 548142]”, the “% inhibition” value is listed as 44%.

“548143 (e[5mC]*eA*k[5mC]*dT*d[5mC]*dT*d[5mC]*d[5mC]*dA*dT*dG*d[5mC]*dT*kT*kT*eG; antisense) [compound 548143]”: the “% inhibition” value turned out to be 39%.

Consider “548144 (eA*eT*kG*d[5mC]*d[5mC]*dA*d[5mC]*dT*d[5mC]*dT*d[5mC]*d[5mC]*dA*kT*kG*e[5mC]; antisense) [compound 548144]”, for which the “% inhibition” value was 52%.

For the substance “548145 (eA*eT*kG*d[5mC]*dA*dA*dA*dG*dA*dA*dG*dA*dT*kG*k[5mC]*e[5mC]; antisense) [compound 548145]”, the “% inhibition” value was determined as 63%.

With “548146 (eG*eT*k[5mC]*d[5mC]*dT*dT*dA*dG*dG*dA*dT*dG*d[5mC]*kA*kA*eA; antisense) [compound 548146]”, the “% inhibition” value is given as 68%.

Consider “548148 (eG*e[5mC]*kA*dG*d[5mC]*dT*d[5mC]*dT*dG*dA*dG*dT*dG*k[5mC]*kA*e[5mC]; antisense) [compound 548148]”, for which the “% inhibition” value is on record as 66%.

As to “548149 (eG*eA*k[5mC]*dA*dT*dT*dG*dT*d[5mC]*d[5mC]*dT*d[5mC]*dA*kG*k[5mC]*eA; antisense) [compound 548149]”, the “% inhibition” value was 39%.

As to “548150 (e[5mC]*eA*kG*dA*d[5mC]*dA*dT*dT*dG*dT*d[5mC]*d[5mC]*dT*k[5mC]*kA*eG; antisense) [compound 548150]”, the “% inhibition” value amounted to 60%.
